Test results published in US20130102627A1, “Acridines As Inhibitors Of Haspin And DYRK Kinases” (THE BRIGHAM AND WOMEN'S HOSPITAL, INC., priority 2010, published 2013).
pIC50: −log10 of the molar value.

Columns and labels:
Assay type in all cases: biochemical
[1] = target: PIM1 (Homo sapiens, UniProt P11309); experiment: Kinase profile panel IC50
[2] = target: ROS (Homo sapiens, UniProt P08922); experiment: Kinase profile panel IC50
[3] = target: T1, haspin (Homo sapiens, UniProt Q8TF76); experiment: Carna Bioscience haspin assay
T1 construct: purchased Carna Bioscience (vendor's assay)
T1 sequence (Q8TF76 1-798): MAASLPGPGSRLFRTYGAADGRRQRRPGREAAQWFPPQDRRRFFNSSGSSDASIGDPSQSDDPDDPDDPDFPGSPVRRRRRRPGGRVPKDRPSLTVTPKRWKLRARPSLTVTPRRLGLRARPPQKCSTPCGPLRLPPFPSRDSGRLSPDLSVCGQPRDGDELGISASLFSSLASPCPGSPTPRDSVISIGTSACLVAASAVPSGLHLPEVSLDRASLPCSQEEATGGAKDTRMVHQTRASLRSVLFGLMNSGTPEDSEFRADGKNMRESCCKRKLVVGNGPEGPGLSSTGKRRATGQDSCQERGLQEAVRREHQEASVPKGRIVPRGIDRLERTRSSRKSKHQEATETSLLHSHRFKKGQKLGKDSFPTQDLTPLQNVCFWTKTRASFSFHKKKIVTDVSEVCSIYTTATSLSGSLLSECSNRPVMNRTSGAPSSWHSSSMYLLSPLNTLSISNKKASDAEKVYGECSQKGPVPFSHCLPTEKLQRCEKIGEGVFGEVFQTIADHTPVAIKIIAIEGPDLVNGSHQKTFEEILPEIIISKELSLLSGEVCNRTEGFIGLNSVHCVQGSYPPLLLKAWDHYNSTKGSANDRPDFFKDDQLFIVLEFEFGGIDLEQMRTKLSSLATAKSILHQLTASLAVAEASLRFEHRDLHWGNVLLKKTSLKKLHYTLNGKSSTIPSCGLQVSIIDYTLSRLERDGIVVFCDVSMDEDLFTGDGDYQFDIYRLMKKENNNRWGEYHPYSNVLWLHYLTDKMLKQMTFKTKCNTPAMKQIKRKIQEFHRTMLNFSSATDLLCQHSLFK

[4] = target: TRKB (Homo sapiens, UniProt Q16620); experiment: Kinase profile panel IC50
TRKB, sequence (Q16620 32-822, species assumed): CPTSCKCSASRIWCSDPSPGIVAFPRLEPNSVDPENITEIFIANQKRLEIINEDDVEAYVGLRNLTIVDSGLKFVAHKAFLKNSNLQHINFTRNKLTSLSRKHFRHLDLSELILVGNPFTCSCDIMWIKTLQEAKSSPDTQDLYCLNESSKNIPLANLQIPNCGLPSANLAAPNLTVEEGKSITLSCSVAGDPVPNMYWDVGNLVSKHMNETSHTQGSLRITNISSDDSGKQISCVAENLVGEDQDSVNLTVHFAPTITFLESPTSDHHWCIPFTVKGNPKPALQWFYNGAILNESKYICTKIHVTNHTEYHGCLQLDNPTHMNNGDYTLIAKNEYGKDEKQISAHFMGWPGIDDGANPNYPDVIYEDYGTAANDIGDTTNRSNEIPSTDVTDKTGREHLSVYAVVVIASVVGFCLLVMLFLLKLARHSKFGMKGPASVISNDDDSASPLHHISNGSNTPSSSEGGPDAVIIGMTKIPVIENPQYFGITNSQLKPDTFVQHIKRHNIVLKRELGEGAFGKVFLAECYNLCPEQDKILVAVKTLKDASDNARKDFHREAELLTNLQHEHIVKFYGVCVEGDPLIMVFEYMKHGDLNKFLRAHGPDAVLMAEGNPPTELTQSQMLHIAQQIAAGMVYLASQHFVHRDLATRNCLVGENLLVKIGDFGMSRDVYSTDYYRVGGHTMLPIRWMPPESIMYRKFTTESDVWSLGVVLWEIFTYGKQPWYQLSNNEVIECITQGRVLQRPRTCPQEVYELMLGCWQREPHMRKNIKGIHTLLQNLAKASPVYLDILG

[5] = target: HIPK1 (Homo sapiens, UniProt Q86Z02); experiment: Kinase profile panel IC50
HIPK1, sequence (Q86Z02 whole entry, species assumed): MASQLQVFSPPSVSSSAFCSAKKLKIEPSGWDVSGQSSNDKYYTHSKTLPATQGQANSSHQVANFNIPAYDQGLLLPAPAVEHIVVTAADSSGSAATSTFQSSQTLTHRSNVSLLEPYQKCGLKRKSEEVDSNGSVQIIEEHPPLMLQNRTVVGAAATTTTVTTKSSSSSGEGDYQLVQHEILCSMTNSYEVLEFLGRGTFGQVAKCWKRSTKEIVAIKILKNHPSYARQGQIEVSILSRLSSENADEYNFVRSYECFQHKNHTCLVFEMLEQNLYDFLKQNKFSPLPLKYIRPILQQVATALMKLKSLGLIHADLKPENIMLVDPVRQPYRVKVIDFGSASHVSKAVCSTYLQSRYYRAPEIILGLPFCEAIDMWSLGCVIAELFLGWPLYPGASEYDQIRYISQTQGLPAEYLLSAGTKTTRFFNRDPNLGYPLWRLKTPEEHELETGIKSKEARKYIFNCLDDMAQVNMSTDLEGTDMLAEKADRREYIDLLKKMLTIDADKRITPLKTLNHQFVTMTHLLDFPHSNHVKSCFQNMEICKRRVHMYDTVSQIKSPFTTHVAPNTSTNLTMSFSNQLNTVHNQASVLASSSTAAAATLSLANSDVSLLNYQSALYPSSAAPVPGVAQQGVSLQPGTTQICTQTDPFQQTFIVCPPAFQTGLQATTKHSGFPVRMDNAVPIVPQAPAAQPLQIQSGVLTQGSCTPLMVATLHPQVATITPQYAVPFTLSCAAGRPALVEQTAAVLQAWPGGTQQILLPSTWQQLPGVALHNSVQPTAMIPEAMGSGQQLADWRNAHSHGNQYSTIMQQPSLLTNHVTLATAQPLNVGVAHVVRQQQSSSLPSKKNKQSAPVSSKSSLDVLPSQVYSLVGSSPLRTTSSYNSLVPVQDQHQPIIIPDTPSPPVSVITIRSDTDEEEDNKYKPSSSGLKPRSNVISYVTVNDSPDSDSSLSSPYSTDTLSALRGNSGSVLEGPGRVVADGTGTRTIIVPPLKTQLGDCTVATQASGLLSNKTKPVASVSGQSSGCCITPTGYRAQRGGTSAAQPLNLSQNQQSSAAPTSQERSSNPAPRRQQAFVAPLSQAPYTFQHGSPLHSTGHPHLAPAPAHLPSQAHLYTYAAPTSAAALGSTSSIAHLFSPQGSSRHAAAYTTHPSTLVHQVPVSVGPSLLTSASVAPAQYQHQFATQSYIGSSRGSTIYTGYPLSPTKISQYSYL

[6] = target: PIM2 (Homo sapiens, UniProt Q9P1W9); experiment: Kinase profile panel IC50
PIM2, sequence (Q9P1W9 whole entry, species assumed): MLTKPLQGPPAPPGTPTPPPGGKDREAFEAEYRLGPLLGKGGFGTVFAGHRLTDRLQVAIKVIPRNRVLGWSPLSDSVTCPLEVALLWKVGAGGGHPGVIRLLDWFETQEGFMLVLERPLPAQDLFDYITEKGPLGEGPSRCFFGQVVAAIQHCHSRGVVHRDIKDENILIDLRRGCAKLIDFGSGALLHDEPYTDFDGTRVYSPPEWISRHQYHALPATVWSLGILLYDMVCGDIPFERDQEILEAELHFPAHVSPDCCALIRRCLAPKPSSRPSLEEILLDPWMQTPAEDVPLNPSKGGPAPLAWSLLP

[7] = target: HIPK2 (Homo sapiens, UniProt Q9H2X6); experiment: Kinase profile panel IC50
[8] = tested on: panel of two hundred and seventy kinases; experiment: Functional inhibition profiling against kinase panel at 10 μM; settings: panel of 270 kinases
[9] = target: T2, human DYRK2 (GST-DYRK2) (Homo sapiens, UniProt Q92630); experiment: DYRK2 inhibitor assay (33P incorporation into Woodtide peptide); settings: for pIC50: DYRK2 assay of Example 7; for DYRK2 inhibitory activity (SAR, in words): compared with LDN-192960
T2 construct: purchased Carna Biosciences, Japan
T2 sequence (Q92630 1-601): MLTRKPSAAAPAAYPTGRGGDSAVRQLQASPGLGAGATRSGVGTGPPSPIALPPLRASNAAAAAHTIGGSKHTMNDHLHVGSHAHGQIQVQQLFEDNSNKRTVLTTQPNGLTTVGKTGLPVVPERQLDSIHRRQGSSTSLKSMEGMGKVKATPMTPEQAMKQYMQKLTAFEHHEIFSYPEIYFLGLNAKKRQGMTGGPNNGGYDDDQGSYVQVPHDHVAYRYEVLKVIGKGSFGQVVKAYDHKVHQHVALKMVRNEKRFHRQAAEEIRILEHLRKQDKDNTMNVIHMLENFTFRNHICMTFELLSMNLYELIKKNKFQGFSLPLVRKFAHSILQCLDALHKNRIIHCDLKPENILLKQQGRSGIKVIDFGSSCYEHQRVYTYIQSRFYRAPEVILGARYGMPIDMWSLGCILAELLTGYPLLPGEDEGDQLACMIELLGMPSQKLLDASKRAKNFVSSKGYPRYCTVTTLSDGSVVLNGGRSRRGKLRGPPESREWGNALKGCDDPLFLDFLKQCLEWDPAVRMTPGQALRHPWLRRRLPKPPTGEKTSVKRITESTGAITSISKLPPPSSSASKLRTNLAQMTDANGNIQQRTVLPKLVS
Protocol: Reactions were stopped after 10 minutes by addition of 30 mM EDTA followed by spotting 10 μl of the reaction mix on to P81 phosphocellulose filter (Whatman). […] Background level of ^33P incorporation was defined from control reaction lacking peptide.
(§1) The human haspin kinase inhibitory activity of the various compounds was evaluated using the same assay utilized for the HTS, except in the presence of varying test compound concentrations. DYRK2 kinase inhibitory activity was measured by ^33P-incorporation into Woodtide peptide substrate in the presence of human DYRK2 containing an N-terminal GST-fusion protein and γ^33P-ATP.

[10] = target: T3, human Haspin (MBP-Haspin) (Homo sapiens, UniProt Q8TF76); experiment: TR-FRET Haspin assay; settings: for haspin inhibitory activity (SAR, in words): compared with LDN-192960
T3 construct: This full-length Haspin gene was cloned into the pMALc2E vector; made in house; host or cells: E. coli Rosetta2(DE3)pLysS
T3 sequence (Q8TF76 1-798): T1 sequence (Q8TF76 1-798)
From the text: To identify Haspin inhibitors by high throughput screening, a homogeneous kinase assay based on time-resolved fluorescence resonance energy transfer (TR-FRET) was designed. […] Such TR-FRET assays use a lanthanide donor species conjugated to a phospho-specific antibody that binds specifically to the product of kinase reaction labeled with an acceptor fluorophore. This induced proximity of the donor and acceptor fluorophores leads to resonance energy transfer, resulting in a detectable increase of TR-FRET signal.
In the assay described below, a Europium chelate, conjugated to an anti-Histone H3T3ph antibody, as the donor species was used. The acceptor fluorophore, allophycocyanin (APC) was used as a streptavidin conjugate that could bind to a biotinylated Histone H3 peptide substrate. […] Lanthanide ions like Europium have a much longer emission lifetime, often measured in hundreds of microseconds, compared with traditional organic reagents that have lifetimes measured on the scale of […]. TR-FRET assays are thus less susceptible to compound interference generated by short-lived compound or matrix component fluorescence. Furthermore, TR-FRET can be carried out in a homogeneous format that avoids time-consuming separation steps that introduce variability. Based on these properties TR-FRET based assay kinases have been widely used in high throughput screening.
The reaction was incubated for 10 minutes at room temperature. Reaction was terminated by the addition of 10 μl 50 mM EDTA, 2 nM Europium labeled anti-Histone H3T3ph antibody, 40 nM Streptavidin-APC.
Data were analyzed using GraphPad Prism Version 4 (GraphPad Software Inc, La Jolla, Calif.). No inhibitor (“MAX”) and Staurosporine inhibitor (“MIN”) controls were used to calculate Z′ values and signal to background ratios during the high throughput screen. […] Km concentrations were also determined by non-linear regression.
as §1

PIM1, sequence (P11309 whole entry, species assumed): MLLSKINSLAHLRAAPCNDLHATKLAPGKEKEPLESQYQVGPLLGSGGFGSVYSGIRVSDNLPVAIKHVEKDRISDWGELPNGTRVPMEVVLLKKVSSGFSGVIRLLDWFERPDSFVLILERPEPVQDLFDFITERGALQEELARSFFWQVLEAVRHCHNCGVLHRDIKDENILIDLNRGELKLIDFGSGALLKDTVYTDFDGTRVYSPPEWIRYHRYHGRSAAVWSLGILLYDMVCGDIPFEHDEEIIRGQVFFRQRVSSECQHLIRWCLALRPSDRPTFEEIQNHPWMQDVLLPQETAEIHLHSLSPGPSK
ROS, sequence (P08922 28-2347, species assumed): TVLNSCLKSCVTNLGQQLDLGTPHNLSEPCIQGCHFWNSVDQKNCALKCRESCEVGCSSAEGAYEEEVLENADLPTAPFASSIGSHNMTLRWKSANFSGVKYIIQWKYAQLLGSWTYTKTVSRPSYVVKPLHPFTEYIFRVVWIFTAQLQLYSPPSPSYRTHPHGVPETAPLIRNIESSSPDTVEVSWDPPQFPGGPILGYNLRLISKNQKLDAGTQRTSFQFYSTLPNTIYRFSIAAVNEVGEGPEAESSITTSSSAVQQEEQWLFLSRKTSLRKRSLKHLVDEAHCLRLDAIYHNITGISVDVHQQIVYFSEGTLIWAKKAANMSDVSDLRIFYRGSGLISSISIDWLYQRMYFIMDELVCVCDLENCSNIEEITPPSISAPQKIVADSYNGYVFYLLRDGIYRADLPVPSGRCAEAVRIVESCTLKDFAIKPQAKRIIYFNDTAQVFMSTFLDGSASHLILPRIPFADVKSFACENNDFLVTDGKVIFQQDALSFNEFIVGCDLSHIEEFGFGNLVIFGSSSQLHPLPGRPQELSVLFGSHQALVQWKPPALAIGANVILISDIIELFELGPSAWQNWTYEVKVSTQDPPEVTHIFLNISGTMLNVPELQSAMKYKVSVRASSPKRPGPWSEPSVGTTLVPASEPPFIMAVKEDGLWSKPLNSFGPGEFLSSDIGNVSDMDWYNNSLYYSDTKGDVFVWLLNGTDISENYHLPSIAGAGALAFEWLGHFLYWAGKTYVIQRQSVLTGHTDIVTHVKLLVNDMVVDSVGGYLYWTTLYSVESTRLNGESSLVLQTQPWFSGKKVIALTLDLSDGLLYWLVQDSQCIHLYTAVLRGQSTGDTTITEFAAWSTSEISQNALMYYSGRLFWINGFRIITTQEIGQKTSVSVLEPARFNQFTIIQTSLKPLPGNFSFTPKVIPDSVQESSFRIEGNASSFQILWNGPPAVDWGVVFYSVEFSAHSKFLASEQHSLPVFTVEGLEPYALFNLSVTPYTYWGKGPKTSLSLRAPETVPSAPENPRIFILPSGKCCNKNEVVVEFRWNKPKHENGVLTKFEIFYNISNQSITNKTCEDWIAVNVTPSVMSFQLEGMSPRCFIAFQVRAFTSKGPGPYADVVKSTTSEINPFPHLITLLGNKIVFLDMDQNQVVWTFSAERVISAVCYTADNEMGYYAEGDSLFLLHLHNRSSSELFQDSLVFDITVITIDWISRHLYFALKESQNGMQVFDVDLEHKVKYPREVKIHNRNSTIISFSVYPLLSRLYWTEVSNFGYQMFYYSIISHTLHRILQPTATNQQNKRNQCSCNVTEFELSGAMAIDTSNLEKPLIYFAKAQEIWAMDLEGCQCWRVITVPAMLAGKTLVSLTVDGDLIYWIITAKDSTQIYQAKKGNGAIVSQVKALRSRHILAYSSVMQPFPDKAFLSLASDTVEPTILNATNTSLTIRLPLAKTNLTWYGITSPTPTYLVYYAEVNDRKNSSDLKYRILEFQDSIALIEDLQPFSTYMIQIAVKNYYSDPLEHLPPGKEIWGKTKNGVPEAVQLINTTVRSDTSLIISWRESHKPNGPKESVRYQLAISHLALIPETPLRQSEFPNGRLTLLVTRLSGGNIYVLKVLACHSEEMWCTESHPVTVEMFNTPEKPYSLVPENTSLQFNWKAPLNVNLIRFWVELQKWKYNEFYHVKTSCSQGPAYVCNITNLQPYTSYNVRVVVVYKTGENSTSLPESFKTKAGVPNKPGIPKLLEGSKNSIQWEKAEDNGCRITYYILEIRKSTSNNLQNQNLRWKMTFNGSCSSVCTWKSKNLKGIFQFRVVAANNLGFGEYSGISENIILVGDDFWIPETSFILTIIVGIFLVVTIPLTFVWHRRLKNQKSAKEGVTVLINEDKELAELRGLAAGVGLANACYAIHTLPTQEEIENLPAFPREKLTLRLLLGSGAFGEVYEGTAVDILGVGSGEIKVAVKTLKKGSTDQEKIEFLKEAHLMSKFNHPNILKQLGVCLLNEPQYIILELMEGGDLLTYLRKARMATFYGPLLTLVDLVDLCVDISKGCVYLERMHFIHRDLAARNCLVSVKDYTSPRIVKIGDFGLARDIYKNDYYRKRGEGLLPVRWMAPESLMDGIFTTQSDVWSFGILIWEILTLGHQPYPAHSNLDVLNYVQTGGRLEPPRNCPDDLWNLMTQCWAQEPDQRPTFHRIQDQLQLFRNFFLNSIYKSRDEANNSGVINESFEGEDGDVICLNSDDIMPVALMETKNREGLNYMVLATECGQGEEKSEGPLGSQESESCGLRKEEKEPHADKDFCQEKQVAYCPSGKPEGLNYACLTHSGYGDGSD

Row | Compound | pIC50 [9] | DYRK2 inhibitory activity (SAR, in words) [9] | pIC50 ([10]; TR-FRET assay of Example 3) | haspin inhibitory activity (SAR, in words) [10] | also measured
1 | COc1ccc2nc3ccc(OC)cc3c(SCCCN)c2c1 [LDN-192960] |  |  |  |  | pIC50 [1]: 6.14; pIC50 [2]: 5.80; inhibition at 10 µM [3]: 100%; pIC50 [4]: 4.04; pIC50 [5]: 5.85; pIC50 [6]: 4.25; pIC50 [7]: 5.89; number of other kinases inhibited by ≧90% [8]: ten
2 | COc1cc2nc3ccccc3c(SCCCN)c2cc1OC [LDN-192965] | < 5.00 | loss in activity | < 4.70 | loss of activity | 
3 | COc1cc(OC)c2nc3ccccc3c(NCCCN(C)C)c2c1 [LDN-209839] | < 5.00 |  | < 4.70 |  | 
4 | CCN(CC)CCCNc1c2ccccc2nc2c(OC)cc(OC)cc12 [LDN-209840] | < 6.00 |  | < 4.70 |  | 
5 | COc1ccc2nc3ccc(C)cc3c(SCCCN)c2c1 [LDN-209928] | > 6.30 | not as tolerated | > 7.00 |  | pIC50 ([10]; text of SAR study): > 7.00
6 | COc1ccc2nc3ccc(Cl)cc3c(SCCCN)c2c1 [LDN-209929] | > 5.00 | not as tolerated | > 7.00 |  | selectivity for haspin versus DYRK2 [10]: 180 fold; pIC50 ([10]; text of SAR study): > 7.22
7 | COc1cc2c(SCCCN)c3ccccc3nc2cc1Cl [LDN-209957] | > 5.00 | not tolerated | > 7.00 | still quite active | 
8 | NCCCSc1c2ccccc2nc2ccccc12 [LDN-209961] | > 5.00 | very detrimental | > 5.00 | inhibitory activity was dramatically reduced | 
9 | COc1ccc2nc3ccc(OC)cc3c(NCCCN)c2c1 [LDN-209962] | > 5.00 | detrimental to DYRK2 inhibition | > 5.30 | detrimental | 
10 | COc1ccc2nc3ccc(OC)cc3c(OCCCN)c2c1 [LDN-209963] | < 4.70 | detrimental to DYRK2 inhibition | < 4.70 | detrimental | 
11 | COc1ccc2nc(-c3ccccc3)cc(SCCCN)c2c1 [LDN-209964] | < 5.00 |  | > 5.00 |  | 
12 | COc1ccc2nc3ccc(OC)cc3c(CCCCN)c2c1 [LDN-209973] | > 6.30 | tolerated | > 7.30 | retained potent inhibitory activity | reduction in DYRK2 potency ([9]; relative to LDN-192960 (sulfur replaced with methylene)): 5 fold
13 | COc1ccc2nc3c(c(SCCCN)c2c1)CCCC3 [LDN-211840] | > 5.00 |  | > 6.30 |  | 
14 | COc1ccc2nc3ccc(OC)cc3c(SCCCN3C(=O)c4ccccc4C3=O)c2c1 [LDN-211848] |  | moderately potent | > 5.00 | significant loss of activity | 
15 | COc1ccc2nc3ccccc3c(SCCCN3C(=O)c4ccccc4C3=O)c2c1 [LDN-211849] | > 6.00 |  | > 5.00 | significant loss of activity | 

More lines, main results first:

Row | pIC50 [9] | DYRK2 inhibitory activity (SAR, in words) [9] | pIC50 ([10]; TR-FRET assay of Example 3) | haspin inhibitory activity (SAR, in words) [10] | Compound | also measured
16 | > 6.70 |  | > 7.30 |  | NCCCSc1c2cc(O)ccc2nc2ccc(O)cc12 [LDN-209838] | 
17 | > 6.70 | significant erosion of potency | > 7.30 |  | COc1ccc2nc3ccccc3c(SCCCN)c2c1 [LDN-209856] | pIC50 ([10]; text of SAR study): > 7.00
18 | > 6.30 |  | > 6.70 | reduced activity | COc1ccc2nc3ccc(OC)cc3c(SCCN)c2c1 [LDN-209958] | 
19 | > 7.30 |  | > 7.30 | only a minimal impact on potency | COc1ccc2nc3ccc(OC)cc3c(SCCCCN)c2c1 [LDN-209959] | 
20 | > 6.70 |  | > 8.00 | equally potent | CNCCCSc1c2cc(OC)ccc2nc2ccc(OC)cc12 [LDN-209960] | 
21 | > 6.30 |  | > 7.30 | slight decrease in activity | COc1ccc2nc3ccc(OC)cc3c(SCCCN(C)C)c2c1 [LDN-212055] | 
